Source: US20110144064A1, “Inhibitors of Kynurenine Aminotransferase and Uses Therefor” (priority 2005, published 2011)
Values joined by “and” are separate entries in the source; they are usually repeats but may differ in a detail not shown here. Identical values can stand only once.

target: T1, rat liver partially purified KAT II (Rattus norvegicus, UniProt Q64602); experiment: Inhibition of kynurenine aminotransferase II activity ([3H]-kynurenine to [3H]-kynurenic acid); type: biochemical; conditions: IC50 kynurenine aminotransferase II
T1 construct: rat liver partially purified KAT II; from tissue; host or cells: rat liver
Method: Compounds were tested as inhibitors of kynurenine aminotransferase II and the IC50 values determined. For the determination of the KAT II activity, 80 μl of rat liver partially purified KAT II was incubated (2 hrs at 37° C. with 100 μl of 150 mM Tris-acetate (pH 7.4), 2 μM kynurenine, (2.5 nCi) [^3H]-kynurenine 1 mM pyruvate and 70 μM pyridoxal-5′-phosphate. Add 20 μl of the inhibitor solution (10×). The reaction was terminated by the addition of 14 μl of 50% trichloroacetic acid and 1 ml of 0.1 N hydrochloric acid. The denaturated protein was removed by centrifugation and 1 ml of the supernatant was applied to a Dowex 50 W H^+ cation exchange column which was then washed with 1 ml of 0.1 N hydrochloric acid followed by 1 ml of ultrapure water. [^3H]-Kynurenic acid formed was subsequently eluted with 2×1 ml of ultrapure water and radioactivity was quantified by liquid scintillation spectrometry.
All compounds are in the racemic form, when applicable, unless indicated otherwise. Other untested compounds are commercially available or easily synthesized using standard synthetic methods. Data are presented as IC50 values in μM for all tested compounds. Blanks are untested compounds.

T1 sequence (Q64602 30-425): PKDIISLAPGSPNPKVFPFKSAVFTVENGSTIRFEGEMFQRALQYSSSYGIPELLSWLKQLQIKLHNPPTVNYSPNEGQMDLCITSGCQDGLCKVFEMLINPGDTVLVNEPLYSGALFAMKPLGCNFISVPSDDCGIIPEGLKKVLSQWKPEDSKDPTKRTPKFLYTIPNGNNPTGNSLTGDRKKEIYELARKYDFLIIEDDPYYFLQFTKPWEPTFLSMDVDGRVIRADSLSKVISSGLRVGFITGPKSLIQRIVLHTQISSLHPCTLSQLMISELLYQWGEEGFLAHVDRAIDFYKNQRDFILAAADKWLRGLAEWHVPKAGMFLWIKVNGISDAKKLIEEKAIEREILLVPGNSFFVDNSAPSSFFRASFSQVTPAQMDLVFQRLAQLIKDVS

SMILES	IC50 [µM]
NC(CCCCCC(=O)O)C(=O)O (racemic) [n=5, R^1 = NH^2, DL-2-amino-1,8-octanedioic acid]	272

same assay, conditions: IC50 kynurenine aminotransferase II, rat liver partially purified KAT II, 2 hrs at 37° C., pH 7.4, 2 μM kynurenine, 1 mM pyruvate

SMILES	IC50 [µM]
NC(CCC(=O)O)C(=O)O (racemic) [n=2, R^1 = NH^2, DL-2-amino-1,5-pentanedioic acid]	2250
NC(CCP(=O)(O)O)C(=O)O (racemic) [n=2, X = PO3H2 (DL), DL-2-amino-4-phosphonobutyric acid]	505
NC(CCCCCP(=O)(O)O)C(=O)O (stereo not drawn) [n=5, X = PO3H2 (DL), 2-amino-7-phosphonoheptanoic acid]	1460

same assay, conditions: rat liver partially purified KAT II, 2 hrs at 37° C., pH 7.4, 2 μM kynurenine, 1 mM pyruvate

SMILES	IC50 kynurenine aminotransferase II
O=C(O)CC(=O)O [n=0, R^1 = H]	inactive
O=C(O)CCC(=O)O [n=1, R^1 = H]	inactive
O=C(O)CCCC(=O)O [n=2, R^1 = H]	inactive
O=C(O)CCCCCCC(=O)O [n=5, R^1 = H]	inactive

same assay, conditions: rat liver partially purified KAT II, 2 hrs at 37° C., pH 7.4, 2 μM kynurenine, 1 mM pyruvate; read-out: IC50 kynurenine aminotransferase II

SMILES	IC50
CC(N)(CCCCCCCCCCCCCC(=O)O)C(=O)O (racemic) [DL-2-amino-2-methyl-1,16-hexadecanedioic acid]	53.7 µM
CNC(CCCCCCCCCCCCCC(=O)O)C(=O)O (racemic) [DL-2-methylamino-1,16-hexadecanedioic acid]	29.3 µM
NC(CC(=O)O)C(=O)O (racemic) [n=1, R^1 = NH^2, DL-2-amino-1,4-butanedioic acid]	2460 µM
NC(CCCC(=O)O)C(=O)O (racemic) [n=3, R^1 = NH^2, DL-2-amino-1,6-hexanedioic acid]	18 µM
NC(CCCP(=O)(O)O)C(=O)O (racemic) [n=3, X = PO3H2 (DL), DL-2-amino-5-phosphonopentanoic acid]	1000 µM
NC(CCCCC(=O)O)C(=O)O (racemic) [n=4, R^1 = NH^2, DL-2-amino-1,7-heptanedioic acid]	14 µM
NC(CCCCCCC(=O)O)C(=O)O (racemic) [n=6, R^1 = NH^2, DL-2-amino-1,9-nonanedioic acid]	355 µM
NC(CCCCCCCCC(=O)O)C(=O)O (racemic) [n=8, R^1 = NH^2, DL-2-amino-1,11-undecanedioic acid]	7 µM
NC(CCCCCCCCCC(=O)O)C(=O)O (racemic) [n=9, R^1 = NH^2, DL-2-amino-1,12-dodecandioic acid]	8 µM
NC(CCCCCCCCCCC(=O)O)C(=O)O (racemic) [n=10, R^1 = NH^2, DL-2-amino-1,13-tridecanedioic acid]	7 µM
NC(CCCCCCCCCCCCCC(=O)O)C(=O)O (racemic) [n=13, R^1 = NH^2, DL-2-amino-1,16-hexadecanedioic acid]	6 µM and 6.4 µM
NC(CCCCCCCCCCCCCCC(=O)O)C(=O)O (racemic) [n=14, R^1 = NH^2, DL-2-amino-1,17-heptadecanedioic acid]	85 µM
O=C(O)CCCCCCCCCCCCCCCO [n = 13, R1, R2 = H, X = CH2OH, 16-hydroxyhexadecanoic acid]	149 µM
N[C@@H](CS(=O)O)C(=O)O [n=1, X = S02H (L), cysteinesulfinic acid]	1150 µM
NC(CS(=O)(=O)O)C(=O)O (centres unmarked) [n=1, X = SO3H (L), 2-amino-3-sulfopropionic acid]	739 µM
N[C@@H](CCS(=O)O)C(=O)O [n=2, X = S02H (L), homocysteinesulfinic acid]	224 µM
NC(CCS(=O)(=O)O)C(=O)O (centres unmarked) [n=2, X = SO3H (L), 2-amino-4-sulfobutyric acid]	63 µM
O=C(O)CCCCC(=O)O [n=3, R^1 = H, 1,6-hexanedioic acid]	1290 µM
O=C(O)CCCCCC(=O)O [n=4, R^1 = H, 1,7-heptanedioic acid]	6370 µM
O=C(O)CCCCCCCC(=O)O [n=6, R^1 = H, 1,9-nonanedioic acid]	4580 µM
O=C(O)CCCCCCCCC(=O)O [n=7, R^1 = H, 1,10-decanedioic acid]	720 µM
O=C(O)CCCCCCCCCC(=O)O [n=8, R^1 = H, 1,11-undecanedioic acid]	234 µM
O=C(O)CCCCCCCCCCC(=O)O [n=9, R^1 = H, 1,12-dodecanedioic acid]	256 µM
O=C(O)CCCCCCCCCCCC(=O)O [n=10, R^1 = H, 1,13-tridecanedioic acid]	170 µM
O=C(O)CCCCCCCCCCCCC(=O)O [n=11, R^1 = H, 1,14-tetradecanedioic acid]	102 µM
O=C(O)CCCCCCCCCCCCCC(=O)O [n=12, R^1 = H, 1,15-pentadecanedioic acid]	71 µM
O=C(O)CCCCCCCCCCCCCCC(=O)O [n=13, R^1 = H, 1,16-hexadecanedioic acid]	60 µM
